Test results taken from paper PMC12097107, “Identification and Biological Evaluation of a Novel CLK4 Inhibitor Targeting Alternative Splicing in Pancreatic Cancer Using Structure‐Based Virtual Screening” (Advanced Science, 2025).

Legend:
[1] = target: T1, CLK4 (Cdc-like kinase 4; Cdc2-like kinase 4) (Homo sapiens, UniProt Q9HAZ1); test: LanthaScreen Eu kinase binding assay (FRET)
Source text: (§1) LanthaScreen Eu kinase binding assay (FRET) on CLK4 (Cdc-like kinase 4; Cdc2-like kinase 4)

CLK2 [2] = target: T2, CLK2 (Homo sapiens, UniProt P49760); test: biochemical; design: Thermo Fisher SelectScreen kinase assays (LanthaScreen Eu binding, Adapta or Z'LYTE), per cent inhibition
T2 construct: Thermo Fisher SelectScreen panel kinase
T2 sequence (P49760 whole entry): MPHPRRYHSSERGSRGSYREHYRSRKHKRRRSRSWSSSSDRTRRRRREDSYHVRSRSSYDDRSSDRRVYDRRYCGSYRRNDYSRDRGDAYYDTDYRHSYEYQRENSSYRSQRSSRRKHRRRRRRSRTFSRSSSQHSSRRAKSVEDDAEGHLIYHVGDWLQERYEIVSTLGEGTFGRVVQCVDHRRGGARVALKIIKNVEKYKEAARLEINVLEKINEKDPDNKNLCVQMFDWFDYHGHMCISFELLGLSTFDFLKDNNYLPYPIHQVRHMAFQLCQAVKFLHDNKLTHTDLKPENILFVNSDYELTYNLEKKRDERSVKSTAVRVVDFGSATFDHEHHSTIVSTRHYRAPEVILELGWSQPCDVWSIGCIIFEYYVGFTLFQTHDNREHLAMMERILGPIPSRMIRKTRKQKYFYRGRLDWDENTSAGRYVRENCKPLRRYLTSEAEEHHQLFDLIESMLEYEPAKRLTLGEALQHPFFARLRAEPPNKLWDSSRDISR
Experimental: (§2) Enzyme‐based assays were carried out by Thermo Fisher Scientific (Waltham, MA, USA). Thermo Fisher Scientific utilizes LanthaScreen Eu Kinase Binding Assay Technology (www.thermofisher.com/lanthascreen), which is based on fluorescence resonance energy transfer (FRET), to conduct the kinase activity assays. Fluorescent receptor dyes are conjugated to the kinase, and an Eu‐labeled anti‐tag antibody is added to detect the phosphorylated fluorescein‐labeled substrate. The fluorescence‐labeled kinase, antibody, and test compounds are combined in an appropriate buffer solution. After incubation, the mixture is placed in a fluorescent plate reader capable of detecting FRET signals. FRET efficiency is calculated by comparing the ratio of the acceptor emission to the donor emission. The selected compounds were evaluated at specified concentrations, and IC50 values were determined using GraphPad Prism software (La Jolla, CA, USA). Each enzymatic activity assay was performed in duplicate, following the quality control guidelines of Thermo Fisher Scientific. Kinase profiling was carried out using the SelectScreen kinase profiling service provided by Thermo Fisher Scientific, with supplementary assays such as Adapta and Z'LYTE included when available for the respective kinases. The detailed protocols are available at the following links: www.thermofisher.com/adapta and https://www.thermofisher.com/z‐lyte. Selectivity is essential for kinase inhibitors to minimize off‐target effects and reduce adverse reactions. Selective inhibitors also enable researchers to better understand the specific functions of targets like CLK4 in physiological and pathological pathways. Therefore, we further evaluated the selectivity of compound 150441 using kinase profiling analysis. The compound was tested at a concentration of 30 nM against a panel of 60 kinases from various families using Thermo Fisher SelectScreen kinase profiling services (Figure 7 ). […] In addition, CLKs comprise four isoforms: CLK1, CLK2, CLK3, and CLK4.

[3] = target: T1, CLK4 (Cdc-like kinase 4; Cdc2-like kinase 4); test: biochemical; design: Thermo Fisher SelectScreen kinase assays (LanthaScreen Eu binding, Adapta or Z'LYTE), per cent inhibition
Experimental: as §2

CLK3 [4] = target: T3, CLK3 (Homo sapiens, UniProt P49761); test: biochemical; design: Thermo Fisher SelectScreen kinase assays (LanthaScreen Eu binding, Adapta or Z'LYTE), per cent inhibition
T3 construct: Thermo Fisher SelectScreen panel kinase
T3 sequence (P49761 whole entry): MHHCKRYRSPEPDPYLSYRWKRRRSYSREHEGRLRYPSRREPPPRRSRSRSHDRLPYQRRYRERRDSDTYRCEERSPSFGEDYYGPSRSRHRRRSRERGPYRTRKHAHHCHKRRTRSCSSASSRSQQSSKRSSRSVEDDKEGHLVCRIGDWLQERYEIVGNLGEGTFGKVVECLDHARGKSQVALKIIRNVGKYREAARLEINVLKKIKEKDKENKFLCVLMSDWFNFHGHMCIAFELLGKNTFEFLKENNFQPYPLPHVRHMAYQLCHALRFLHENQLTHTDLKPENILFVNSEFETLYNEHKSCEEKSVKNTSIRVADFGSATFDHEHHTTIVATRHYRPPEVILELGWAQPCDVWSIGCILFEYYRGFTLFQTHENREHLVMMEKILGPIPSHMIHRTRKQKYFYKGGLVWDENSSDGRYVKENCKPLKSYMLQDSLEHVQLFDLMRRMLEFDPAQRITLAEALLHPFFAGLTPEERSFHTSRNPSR
Experimental: as §2

CLK1 [5] = target: T4, CLK1 (Homo sapiens, UniProt P49759); test: biochemical; design: Thermo Fisher SelectScreen kinase assays (LanthaScreen Eu binding, Adapta or Z'LYTE), per cent inhibition
T4 construct: Thermo Fisher SelectScreen panel kinase
T4 sequence (P49759 whole entry): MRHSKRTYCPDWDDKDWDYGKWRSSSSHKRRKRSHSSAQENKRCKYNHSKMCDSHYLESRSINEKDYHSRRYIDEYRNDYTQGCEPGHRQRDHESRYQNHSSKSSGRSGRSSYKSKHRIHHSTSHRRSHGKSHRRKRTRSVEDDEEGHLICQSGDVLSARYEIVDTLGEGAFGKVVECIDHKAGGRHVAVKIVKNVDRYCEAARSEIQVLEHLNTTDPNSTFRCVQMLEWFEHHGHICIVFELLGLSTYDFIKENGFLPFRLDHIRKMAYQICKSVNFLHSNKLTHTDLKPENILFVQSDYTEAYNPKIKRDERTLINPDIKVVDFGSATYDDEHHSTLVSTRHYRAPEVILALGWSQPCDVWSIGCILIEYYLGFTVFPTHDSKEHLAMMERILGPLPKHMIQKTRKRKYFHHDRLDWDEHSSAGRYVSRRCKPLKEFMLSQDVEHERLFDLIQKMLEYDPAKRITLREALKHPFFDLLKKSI
Experimental: as §2

[6] = target: T1, CLK4 (Cdc-like kinase 4; Cdc2-like kinase 4); test: LanthaScreen Eu kinase binding assay (FRET); format: biochemical
Source text: as §1

CLK1 [7] = target: T4, CLK1; test: SelectScreen kinase profiling (assay format per kinase not given); format: biochemical; conditions: read-out: % inhibition at 30 nM
CLK3 [8] = target: T3, CLK3; test: as above; format: biochemical; conditions: read-out: % inhibition at 30 nM
CLK2 [9] = target: T2, CLK2; test: as above; format: biochemical; conditions: read-out: % inhibition at 30 nM

T1 sequence (Q9HAZ1 whole entry): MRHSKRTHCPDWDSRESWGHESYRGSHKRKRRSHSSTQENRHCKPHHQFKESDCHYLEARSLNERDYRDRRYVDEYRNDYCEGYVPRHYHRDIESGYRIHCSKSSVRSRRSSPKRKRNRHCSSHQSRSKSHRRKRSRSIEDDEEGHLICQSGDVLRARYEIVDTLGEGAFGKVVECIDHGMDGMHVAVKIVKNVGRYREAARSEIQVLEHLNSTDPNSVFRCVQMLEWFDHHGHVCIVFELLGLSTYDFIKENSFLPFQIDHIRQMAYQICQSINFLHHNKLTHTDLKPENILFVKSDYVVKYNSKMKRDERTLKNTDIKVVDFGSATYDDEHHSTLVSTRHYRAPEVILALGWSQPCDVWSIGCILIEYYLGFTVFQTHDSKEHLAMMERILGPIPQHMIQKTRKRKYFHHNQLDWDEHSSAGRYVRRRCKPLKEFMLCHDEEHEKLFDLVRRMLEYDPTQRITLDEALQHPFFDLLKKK

SMILES | IC50 [1] | inhibition at 1 µM (CLK2 [2]) | inhibition at 1 µM [3] | inhibition at 1 µM (CLK3 [4]) | inhibition at 1 µM (CLK1 [5]) | also measured
COc1ccc2[nH]c3c(C)c4cc[n+]([O-])cc4c(C)c3c2c1 [compound 237069, 237069] | – | – | – | – | – | inhibition at 1 µM [6]: 47%
Cc1c2cnccc2c(C)c2c1c1ccccc1n2Cc1ccccc1 [compound 322087, 322087] | 121 nM | – | – | – | – | –
Cc1c2c(C(N)=O)nccc2c(C)c2c1c1ccccc1n2Cc1ccccc1 [compound 320613, 320613] | – | – | – | – | – | inhibition at 1 µM [6]: 3%

Now from value to molecule, other results behind:

IC50 [1] | inhibition at 1 µM (CLK2 [2]) | inhibition at 1 µM [3] | inhibition at 1 µM (CLK3 [4]) | inhibition at 1 µM (CLK1 [5]) | SMILES | also measured
34.8 nM | 69% | 95% | 7% | 65% | Cc1c2cnccc2c(C)c2c1c1ccccc1n2CCNCc1ccccc1 [compound 164016, 164016] | –
101 nM | – | – | – | – | COc1ccc2c(c1)c1c(C)c3cnccc3c(C)c1n2CC1CO1 (centres unmarked) [compound 150836, 150836] | –
38.2 nM | 81% | 98% | 4% | 86% | Cc1c2cnccc2c(C)c2c1c1ccccc1n2CC1CO1 (centres unmarked) [compound 152731, 152731] | –
98.8 nM | – | – | – | – | COc1ccc2[nH]c3c(C)c4ccncc4c(C)c3c2c1 [compound 69187, 69187] | –
21.4 nM | 62% | 98% | 6% | 75% | Cc1c2cnccc2c(C)c2c1c1ccccc1n2CCN(C)C [compound 150441, 150441] | inhibition at 0.03 µM (CLK1 [7]): 7%; inhibition at 0.03 µM (CLK3 [8]): 1.8%; inhibition at 0.03 µM (CLK2 [9]): 9.1%
